Patent US20260297070A1, “CYCLIC [COMPOUND LEFT OUT] WRN INHIBITORS” (Nimbus Wadjet, Inc., priority 2023, published 2026)

These compounds were tested against T1, human Werner helicase (WRN-BV08, Uniprot Q14191, amino acids 517-1235 with L1074F point mutation) (Homo sapiens, UniProt Q14191, L1074F) (assay: WRN (BV08) ADP-Glo Assay). Conditions: 0.15 nM WRN, 5 μM ATP, 0.1 nM DNA duplex, 15 min preincubation, 60 min at 25° C., pH 7.5, 1% DMSO; read-out: ADP-Glo_hWRN_IC50.
T1 construct: Uniprot Q14191, amino acids 517-1235 with L1074F point mutation; TEV-cleavable 8×His (C, cleaved yes); made in house; host or cells: Sf9 insect cells (baculovirus)
Assay type: biochemical
Summary of the method: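 ADP-Glo luminescence read-out of ATP hydrolysis. Conditions: 0.15 nM WRN, 5 μM ATP, 0.1 nM DNA duplex, 1% DMSO, 60 min at 25 °C after 15 min compound preincubation. Max/min controls were DMSO and 20 μM NSC-617145; IC50 from four-parameter fit.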

T1 sequence (Q14191 with tags, fused parts or gaps L1074F limits assumed): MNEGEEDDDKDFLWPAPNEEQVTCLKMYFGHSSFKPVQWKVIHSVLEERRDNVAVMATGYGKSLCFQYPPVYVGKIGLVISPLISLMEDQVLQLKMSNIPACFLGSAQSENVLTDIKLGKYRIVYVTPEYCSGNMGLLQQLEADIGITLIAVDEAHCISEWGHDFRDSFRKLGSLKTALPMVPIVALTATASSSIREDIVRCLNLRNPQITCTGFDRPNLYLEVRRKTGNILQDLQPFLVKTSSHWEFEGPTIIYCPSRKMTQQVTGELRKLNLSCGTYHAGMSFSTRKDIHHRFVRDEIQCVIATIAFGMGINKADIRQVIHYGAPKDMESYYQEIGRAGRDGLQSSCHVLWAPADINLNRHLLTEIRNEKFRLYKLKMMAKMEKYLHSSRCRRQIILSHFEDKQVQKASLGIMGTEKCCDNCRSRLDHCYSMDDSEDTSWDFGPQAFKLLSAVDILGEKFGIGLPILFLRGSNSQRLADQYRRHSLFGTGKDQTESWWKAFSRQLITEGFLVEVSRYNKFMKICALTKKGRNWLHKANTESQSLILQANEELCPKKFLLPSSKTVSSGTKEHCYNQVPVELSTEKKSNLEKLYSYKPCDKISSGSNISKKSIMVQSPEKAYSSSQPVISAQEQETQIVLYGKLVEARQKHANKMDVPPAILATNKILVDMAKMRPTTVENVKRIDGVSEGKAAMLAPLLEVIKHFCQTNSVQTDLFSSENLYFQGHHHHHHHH

SMILES | IC50 [µM]
O=C(Cc1ccc(C(F)(F)F)nc1)N(Cc1ccncc1)C1C=CS(=O)(=O)C1 (centres unmarked) [I-367, N-(1,1-dioxo-2,3-dihydro-1lambda6-thiophen-3-yl)-N-[(pyridin-4-yl)methyl]-2-[6-(trifluoromethyl)pyridin-3-yl]acetamide] | 10 to 50
O=C(Cc1ccc(-n2cccc2)cc1)N(C1C=CS(=O)(=O)C1)C1CCC1 (centres unmarked) [I-533, N-cyclobutyl-N-(1,1-dioxo-2,3-dihydro-1lambda6-thiophen-3-yl)-2-[4-(1H-pyrrol-1-yl)phenyl]acetamide] | > 50
O=C(c1ccc(CN(C(=O)Cc2ccc(-c3ccc(F)c(F)c3)cc2F)C2C=CS(=O)(=O)C2)cc1)N1CCCCC1 (centres unmarked) [I-796, N-(1,1-dioxo-2,3-dihydro-1lambda6-thiophen-3-yl)-N-{[4-(piperidine-1-carbonyl)phenyl]methyl}-2-{3,3′,4′-trifluoro-[1,1′-biphenyl]-4-yl}acetamide] | 0.5 to 5
CN(C)C(=O)C(C(=O)N(Cc1ccnc(C(C)(C)O)c1)C1C=CS(=O)(=O)C1)c1ccc(-c2ccc(F)cc2)cc1F (single isomer, unassigned) [I-340, (2R**)-2-{3,4′-difluoro-[1,1′-biphenyl]-4-yl}-N-[(3R*)-1,1-dioxo-2,3-dihydro-1lambda6-thiophen-3-yl]-N-{[2-(2-hydroxypropan-2-yl)pyridin-4-yl]methyl}-N′,N′-dimethylpropanediamide] | 10 to 50
N#Cc1cc(-n2cccc2)ccc1CC(=O)N(Cc1ccncc1)C1C=CS(=O)(=O)C1 (centres unmarked) [I-468, 2-[2-cyano-4-(1H-pyrrol-1-yl)phenyl]-N-(1,1-dioxo-2,3-dihydro-1lambda6-thiophen-3-yl)-N-[(pyridin-4-yl)methyl]acetamide] | > 50
COC(C(=O)N(Cc1nc(C(C)(C)O)cs1)C1C=CS(=O)(=O)C1)c1ccc(-c2ccc(F)c(F)c2)cc1F (single isomer, unassigned) [I-746, (2R*)-N-[(3R**)-1,1-dioxo-2,3-dihydro-1lambda6-thiophen-3-yl]-N-{[4-(2-hydroxypropan-2-yl)-1,3-thiazol-2-yl]methyl}-2-methoxy-2-{3,3′,4′-trifluoro-[1,1′-biphenyl]-4-yl}acetamide] | < 0.5
O=C(Cc1ccc(-n2cccc2)cc1)N(CC1CCOCC1)C1C=CS(=O)(=O)C1 (centres unmarked) [I-485, N-(1,1-dioxo-2,3-dihydro-1lambda6-thiophen-3-yl)-N-[(oxan-4-yl)methyl]-2-[4-(1H-pyrrol-1-yl)phenyl]acetamide] | > 50
COc1cc(CN(C(=O)Cn2ncc3cc(C(F)(F)C(F)(F)F)ccc32)[C@@H]2C=CS(=O)(=O)C2)ccn1 [I-770, N-[(3R)-1,1-dioxo-2,3-dihydro-1lambda6-thiophen-3-yl]-N-[(2-methoxypyridin-4-yl)methyl]-2-[5-(1,1,2,2,2-pentafluoroethyl)-1H-indazol-1-yl]acetamide] | 0.5 to 5
O=C(Cn1cc(Br)cn1)N(Cc1ccncc1)C1C=CS(=O)(=O)C1 (centres unmarked) [I-408, 2-(4-bromo-1H-pyrazol-1-yl)-N-(1,1-dioxo-2,3-dihydro-1lambda6-thiophen-3-yl)-N-[(pyridin-4-yl)methyl]acetamide] | > 50
CN(CC(C(=O)N(Cc1ccncc1)C1C=CS(=O)(=O)C1)c1ccc(-c2ccc(F)cc2)cc1)S(C)(=O)=O (centres unmarked) [I-458, N-(1,1-dioxo-2,3-dihydro-1lambda6-thiophen-3-yl)-2-{4′-fluoro-[1,1′-biphenyl]-4-yl}-3-(N-methylmethanesulfonamido)-N-[(pyridin-4-yl)methyl]propanamide] | > 50
CC(C(=O)N(Cc1ccnc(C(C)(C)O)c1)C1C=CS(=O)(=O)C1)n1cc(-c2ccc(C(F)(F)F)cc2)cn1 (single isomer, unassigned) [I-774, (2R*)-N-[(3R**)-1,1-dioxo-2,3-dihydro-1lambda6-thiophen-3-yl]-N-{[2-(2-hydroxypropan-2-yl)pyridin-4-yl]methyl}-2-{4-[4-(trifluoromethyl)phenyl]-1H-pyrazol-1-yl}propanamide] | 10 to 50

Next, values leading:

IC50 [µM] | SMILES
> 50 | O=C(Cc1cccc(Oc2ccccc2)c1)N(Cc1ccncc1)C1C=CS(=O)(=O)C1 (centres unmarked) [I-510, N-(1,1-dioxo-2,3-dihydro-1lambda6-thiophen-3-yl)-2-(3-phenoxyphenyl)-N-[(pyridin-4-yl)methyl]acetamide]
< 0.5 | COCCOc1cc(CN(C(=O)Cc2ccc(S(F)(F)(F)(F)F)cc2)C2C=CS(=O)(=O)C2)ccn1 (centres unmarked) [I-719, N-(1,1-dioxo-2,3-dihydro-1lambda6-thiophen-3-yl)-N-{[2-(2-methoxyethoxy)pyridin-4-yl]methyl}-2-[4-(pentafluoro-lambda6-sulfanyl)phenyl]acetamide]
10 to 50 | COc1cc(-c2ccc(F)cc2)ccc1CC(=O)N(Cc1ccncc1)C1C=CS(=O)(=O)C1 (centres unmarked) [I-345, N-(1,1-dioxo-2,3-dihydro-1lambda6-thiophen-3-yl)-2-{4′-fluoro-3-methoxy-[1,1′-biphenyl]-4-yl}-N-[(pyridin-4-yl)methyl]acetamide]
10 to 50 | CSc1ccc(CC(=O)N(Cc2ccncc2)C2C=CS(=O)(=O)C2)cc1 (centres unmarked) [I-339, N-(1,1-dioxo-2,3-dihydro-1lambda6-thiophen-3-yl)-2-[4-(methylsulfanyl)phenyl]-N-[(pyridin-4-yl)methyl]acetamide]
0.5 to 5 | O=C(Cc1ccc(-n2cccc2)cc1F)N(Cc1ccncc1)C1C=CS(=O)(=O)C1 (single isomer, unassigned) [I-127]
< 0.5 | CC(C)(O)c1cc(CN(C(=O)C(OC2CC2)c2ccc(-c3ccc(F)c(F)c3)cc2F)[C@@H]2C=CS(=O)(=O)C2)ccn1 (single isomer, unassigned) [I-681]
5 to 10 | CC(C)(O)c1cc(CN(C(=O)CCc2ccc(S(F)(F)(F)(F)F)cc2)C2C=CS(=O)(=O)C2)ccn1 (single isomer, unassigned) [I-674]
5 to 10 | Cn1ncc2cc(CN(C(=O)Cc3ccc(-n4cccc4)cc3)C3C=CS(=O)(=O)C3)ccc21 (centres unmarked) [I-226, N-(1,1-dioxo-2,3-dihydro-1lambda6-thiophen-3-yl)-N-[(1-methyl-1H-indazol-5-yl)methyl]-2-[4-(1H-pyrrol-1-yl)phenyl]acetamide]
0.5 to 5 | O=C(Cc1ccc(-n2cccc2)cc1)N(Cc1ccnc(OC(F)F)c1)C1C=CS(=O)(=O)C1 (centres unmarked) [I-215, N-{[2-(difluoromethoxy)pyridin-4-yl]methyl}-N-(1,1-dioxo-2,3-dihydro-1lambda6-thiophen-3-yl)-2-[4-(1H-pyrrol-1-yl)phenyl]acetamide]
